“And” between values parts separate entries of the source, which are not always exact repeats. Identical values can stand only once.
Assay: in vivo
Conditions: for plasma concentration of Compound A: after Compound I-19 single PO 6.645 mg/kg
Protocol: Dose solutions were prepared freshly on each day of studies prior to dosing.
The animals were weighed immediately prior to dosing and the dose volume was calculated individually based the obtained body weight and the nominal dose volume. […] The nominal dose volume was 10 mL/kg in both studies.
Cage side observation was performed before and after dosing as well as at each scheduled sample collection time. The observation included appearance, posture, behavior, morbidity and mortality. Abnormal findings, if any, are required to be recorded in the study record and communicated with study director, veterinarian, and Supernus if necessary.
Approximately 40 μL blood was collected at each scheduled time point from saphenous veins. The actual sample collection time was within 1 min. of the nominal time for collections prior to or at 1 hour, and within 5% of the nominal values for collections post 1 hour.
The blood samples were placed in pre-labeled micro-centrifuge tubes containing K2EDTA as anticoagulant and kept on ice before they were processed to plasma within 30 minutes of collection by centrifugation at 4° C., 3000 g for 5 minutes. The plasma samples were stored at −70±10° C. until LC-MS/MS analysis.
Plasma concentrations below the LLOQ prior to Tmax were set to zero, and those after Tmax were excluded from PK calculation. The nominal dose and the nominal sample collection time were used for the calculation. The values of plasma concentrations and PK parameters are reported to three significant figures. The average values of each treatment group are presented as mean±SD.

[1] = after Compound I-19 IP 4.061 mg/kg, average
[2] = after Compound I-19 IP 4.061 mg/kg, mean±SD
[3] = after Compound I-19 PO 6.645 mg/kg, mean±SD
[4] = single IP Compound I-19 4.061 mg/kg, male CD-1 mice, individual animals
[5] = single IP Compound I-19 4.061 mg/kg, male CD-1 mice, mean
[6] = single PO Compound I-19 6.645 mg/kg, male CD-1 mice, individual animals

Compound: Clc1ccc(C2(OCC3OCCO3)c3ccccc3C3=NCCN32)cc1 (stereo not drawn) [Compound I-19]
- AUC0-last of Compound I-19 (IP 4.061 mg/kg, mean±SD): 482 ± 92.9 ng·h/mL
- Cmax of Compound I-19 (IP 4.061 mg/kg, mean±SD): 373 ± 101 ng/mL
- MRT0-last of Compound I-19 (IP 4.061 mg/kg, mean±SD): 69 ± 24.4 min
- T1/2 of Compound I-19 (IP 4.061 mg/kg, mean±SD): 37.9 ± 16.2 min
- Tmax of Compound I-19 (IP 4.061 mg/kg, mean±SD): 25 ± 8.64 min
- AUC0-last of Compound I-19 (PO 6.645 mg/kg, mean±SD): 2.04 ± 2.56 ng·h/mL
- Cmax of Compound I-19 (PO 6.645 mg/kg, mean±SD): 4.27 ± 3.1 ng/mL
- MRT0-last of Compound I-19 (PO 6.645 mg/kg, mean±SD): 21.9 ± 7.56 min
- Tmax of Compound I-19 (PO 6.645 mg/kg, mean±SD): 20 ± 8.64 min
- MRT0-last of Compound B [1]: 186 min
- T1/2 of Compound B [1]: 220 min
- Tmax of Compound B [1]: 120 min
- AUC0-last of Compound A [2]: 104 ± 36.7 ng·h/mL
- AUC0-last of Compound B [2]: 120 ± 58.1 ng·h/mL
- Cmax of Compound A [2]: 50.5 ± 20 ng/mL
- Cmax of Compound B [2]: 30.7 ± 5.42 ng/mL
- MRT0-last of Compound A [2]: 106 ± 27.2 min
- T1/2 of Compound A [2]: 75 ± 18.8 min
- Tmax of Compound A [2]: 40 ± 17.3 min
- AUC0-last of Compound A [3]: 203 ± 45.2 ng·h/mL
- Cmax of Compound A [3]: 158 ± 27.2 ng/mL
- MRT0-last of Compound A [3]: 71.4 ± 4.14 min
- T1/2 of Compound A [3]: 51.3 ± 10.4 min
- Tmax of Compound A [3]: 20 ± 8.64 min
- plasma concentration of Compound A (0.500 h, mean): 126 ng/mL
- plasma concentration of Compound A (1.00 h, individual mice, 6.645 mg/kg): 123 ng/mL and 54.4 ng/mL and 83.2 ng/mL
- plasma concentration of Compound A (1.00 h, mean): 86.9 ng/mL
- plasma concentration of Compound A (2.00 h, individual mice, 6.645 mg/kg): 44.1 ng/mL and 31.3 ng/mL and 36.7 ng/mL
- plasma concentration of Compound A (2.00 h, mean): 37.4 ng/mL
- plasma concentration of Compound A (4.00 h, individual mice, 6.645 mg/kg): 5.24 ng/mL and 6.75 ng/mL and 8.65 ng/mL
- plasma concentration of Compound A (4.00 h, mean): 6.88 ng/mL
- plasma concentration of Compound A (8.00 h, individual mice): BQL
- plasma concentration of Compound A (24.0 h, individual mice): BQL
- Clinical observation (tolerability) (male CD-1 mice, administered dosages (Compound A PO 5.102 mg/kg; Compound I-19 PO 6.645, IP 4.061 mg/kg)): well tolerated
- plasma concentration of Compound I-19 (single IP 4.061 mg/kg, 0.500 h, individual mice, 4.061 mg/kg): 415 ng/mL and 311 ng/mL and 318 ng/mL
- plasma concentration of Compound I-19 (single IP 4.061 mg/kg, 0.500 h, mean): 348 ng/mL
- plasma concentration of Compound I-19 (single IP 4.061 mg/kg, 1.00 h, individual mice, 4.061 mg/kg): 196 ng/mL and 269 ng/mL and 201 ng/mL
- plasma concentration of Compound I-19 (single IP 4.061 mg/kg, 1.00 h, mean): 222 ng/mL
- plasma concentration of Compound I-19 (single IP 4.061 mg/kg, 2.00 h, individual mice, 4.061 mg/kg): 39.7 ng/mL and 100 ng/mL and 71.6 ng/mL
- plasma concentration of Compound I-19 (single IP 4.061 mg/kg, 2.00 h, mean): 70.4 ng/mL
- plasma concentration of Compound I-19 (single IP 4.061 mg/kg, 4.00 h, mean): 13.1 ng/mL
- plasma concentration of Compound I-19 (single IP 4.061 mg/kg, 8.00 h, individual mice): 1.39 ng/mL
- plasma concentration of Compound I-19 (single IP 4.061 mg/kg, 8.00 h, individual mice, 4.061 mg/kg): BQL
- plasma concentration of Compound I-19 (single IP 4.061 mg/kg, 24.0 h, individual mice): BQL
- AUC0-inf of Compound I-19 [4]: 444 ng·h/mL and 589 ng·h/mL and 417 ng·h/mL
- AUC0-last of Compound I-19 [4]: 443 ng·h/mL and 588 ng·h/mL and 414 ng·h/mL
- Cmax of Compound I-19 [4]: 489 ng/mL and 311 ng/mL and 318 ng/mL
- MRT0-inf of Compound I-19 [4]: 49.6 min and 97.2 min and 62.4 min
- MRT0-last of Compound I-19 [4]: 48.9 min and 96 min and 61.2 min
- T1/2 of Compound I-19 [4]: 27.1 min and 56.5 min and 29.9 min
- Tlast of Compound I-19 [4]: 4.00 h (2×) and 8.00 h
- Tmax of Compound I-19 [4]: 30 min
- AUC0-inf of Compound I-19 [5]: 483 ng·h/mL
- AUC0-last of Compound I-19 [5]: 482 ng·h/mL
- Cmax of Compound I-19 [5]: 373 ng/mL
- MRT0-inf of Compound I-19 [5]: 69.6 min
- MRT0-last of Compound I-19 [5]: 69 min
- T1/2 of Compound I-19 [5]: 37.9 min
- Tlast of Compound I-19 [5]: 5.33 h
- Tmax of Compound I-19 [5]: 25 min
- plasma concentration of Compound I-19 (single PO 6.654 mg/kg (as titled), 0.500 h, mean): 4.55 ng/mL
- plasma concentration of Compound I-19 (single PO 6.654 mg/kg (as titled), 2.00 h, individual mice): BQL
- plasma concentration of Compound I-19 (single PO 6.654 mg/kg (as titled), 4.00 h, individual mice): BQL
- plasma concentration of Compound I-19 (single PO 6.654 mg/kg (as titled), 8.00 h, individual mice): BQL
- plasma concentration of Compound I-19 (single PO 6.654 mg/kg (as titled), 24.0 h, individual mice): BQL
- plasma concentration of Compound I-19 (single PO 6.654 mg/kg (as titled), […] h, individual mice): 2.78 ng/mL
- plasma concentration of Compound I-19 (single PO 6.654 mg/kg (as titled), […] h, individual mice, 6.654 mg/kg): BQL
- AUC0-inf of Compound I-19 [6]: 6.92 ng·h/mL
- MRT0-inf of Compound I-19 [6]: 50.2 min
- MRT0-last of Compound I-19 [6]: 20.8 min and 15 min and 29.9 min
- T1/2 of Compound I-19 [6]: 29.1 min
- Tmax of Compound I-19 [6]: 30 min

— patent publication US20250108038A1 (priority 2023, published 2025)
